Results taken from patent US3947456A, “Substituted 4-phenyl isoquinolines” (Hoffman-La Roche Inc., priority 1970, dated 1976).
Where two headings read alike, the source gives them in different places.

Columns and labels:
[1] = tested on: rats; test: Anti-depressant activity: antagonism of symptoms induced by 2-ethyl-2-hydroxy-3-isobutyl-9,10-dimethoxy-1,3,4,6,7,11b-hexahydro-2H-benzo (a) quinolizine hydrochloride (motility, sensitivity to stimulus, seeking behavior, suppression of ptosis); assay type: in vivo; details: 3 doses of 50 mg/kg p.o., benzoquinolizine 20 mg/kg s.c. 6 h after last dose, amitriptyline = 100 percent
Protocol: The compounds of formula I above and their pharmaceutically acceptable salts are extremely effective and active as anti-depressant agents. Their useful anti-depressant activity is shown in warm-blooded animals utilizing standard test procedures. […] Six hours after the last administration the animals received 20 mg/kg of 2-ethyl-2-hydroxy-3-isobutyl-9,10-dimethoxy-1,3,4,6,7,11b-hexahydro-2H-benzo (a) quinolizine hydrochloride injected subcutaneously. The same dosage was administered to a group of 5-non-pretreated rats. The evaluation includes central and peripheral symptoms such as are characteristic for anti-depressants (See Annals of the New York Academy of Science, Vol. 96, page 279, 1962). Especially observed were the motility (climbing), sensitivity to stimulus, seeking behavior as well as the suppression of ptosis. These changes were expressed in numbers according to an evaluation scheme.
The percentage numbers stated relate to the value obtained with amitriptyline (amitriptyline = 100 percent).

[2] = Acute toxicity (LD50), 24 hour values; details: mouse, in vivo, mice, 24 hour value
Protocol: The low toxicity of the compounds of formula I is also illustrated by the acute toxicity (LD50) of the compounds set out in Table I. The figures set forth in Table I as to acute toxicity refer to toxicity tests performed in mice and are the 24 hour values.

SMILES | Activity in % of the activity of amitriptyline [1] | LD50 at 24 h ([2]; iv, i.v., read-out: LD50 i.v.) [mg/kg] | LD50 at 24 h ([2]; po, p.o., read-out: LD50 p.o.) [mg/kg] | LD50 at 24 h ([2]; sc, s.c., read-out: LD50 s.c.) [mg/kg]
CN1Cc2cc(O)ccc2C(c2ccc(Cl)c(Cl)c2)C1 (stereo not drawn) [4-(3,4-dichlorophenyl)-1,2,3,4-tetrahydro-2-methyl-7-isoquinolinol] | about 158% | 30 to 60 | 500 to 1000 | 250 to 500
COc1ccc2c(c1)CN(C)CC2c1ccc(Cl)c(Cl)c1 (stereo not drawn) [4-(3,4-dichlorophenyl)-1,2,3,4-tetrahydro-7-methoxy-2-methylisoquinoline] | about 128% | 125 to 250 | 1000 to 2000 | 500 to 1000
CN1Cc2cc(O)ccc2C(c2ccc(Cl)cc2)C1 (stereo not drawn) [4-(4-chlorophenyl)-1,2,3,4-tetrahydro-2-methyl-7-isoquinolinol] | about 114% | 30 to 60 | 1000 to 2000 | 500 to 1000
